The values that follow come from the SangsterLogP compilation.

The series can be described thus: method code SF-AS, from PMID: 8047542.
In general, logP refers to the decadic logarithm of the partition coefficient of the neutral form, usually between octanol and water. `CC(C)Cc1ccc(C(C)C(=O)OC(C)C)cc1` (configuration not stated) gave a logP of 2.3.
For `CC(C)Cc1ccc(C(C)C(=O)OC(C)(C)C)cc1` (configuration not stated) the value was 2.37; for `CCCCOC(=O)C(C)c1ccc(CC(C)C)cc1` (configuration not stated), 3.13.
`CCOC(=O)C(C)c1ccc(CC(C)C)cc1` (configuration not stated) displayed a logP of 3.02.
In the case of `CC(C)COC(=O)C(C)c1ccc(CC(C)C)cc1` (configuration not stated), the logP is 2.68.
The figure for `CCCCCOC(=O)C(C)c1ccc(CC(C)C)cc1` (configuration not stated) is 3.3.
For `COC(=O)C(C)c1ccc(CC(C)C)cc1` (configuration not stated) the value was 2.97; for `CCCOC(=O)C(C)c1ccc(CC(C)C)cc1` (configuration not stated), 2.88; for `CCCCCCOC(=O)C(C)c1ccc(CC(C)C)cc1` (configuration not stated), 3.55.
For `CCC(C)OC(=O)C(C)c1ccc(CC(C)C)cc1` (configuration not stated) the value was 3.06; for `CCCCCCCOC(=O)C(C)c1ccc(CC(C)C)cc1` (configuration not stated), 3.75; for `CCCCCCCCCCCCCCCCOC(=O)C(C)c1ccc(CC(C)C)cc1` (configuration not stated), 3.71.
